Molecules are shown by their SMILES.

This note sets out measurements from US11484529B2, “Desmethylanethole trithione derivatives for the treatment of diseases linked to mitochondrial reactive oxygen species (ROS) production” (OP2 Drugs, priority 2017, dated 2022).

Assay [1] deals with NAD(P)H oxidase. The assay can be described thus: Non-mitochondrial ROS/H2O2 production by NAD(P)H oxidase (Amplex Red). The conditions noted are these: no mitochondria; for effect on ROS measurement with NAD(P)H oxidase: 10 to 100 μM; for averaged percentage of ROS production across all concentrations tested: NAD(P)H oxidase, FIG. 22A. It counts as biochemical. How it is done: Rates of ROS/H2O2 production from heart mitochondria were assessed through the oxidation of the colorless, non-fluorescent indicator Amplex Red in the presence of exogenous horseradish peroxidase (HRP, EC 1.11.1.7, Sigma). H2O2 reacts with Amplex Red in a 1:1 stoichiometry, yielding the fluorescent compound resorufin (excitation: 560 nm; emission: 585 nm) which is stable once formed. Fluorescence was measured continuously with a spectro-fluorometer equipped with temperature control and stirring (SAFAS Xenius, Monaco). Isolated mitochondria (0.1 mg/mL) were incubated in the same experimental buffer than previously, supplemented with 15 μM Amplex Red and 10 μg/mL HRP. Glutamate (5 mM)/malate (2.5 mM) together with succinate (5 mM) were used as complex I and complex II substrates, respectively. Experiments were conducted under non-phosphorylating conditions in the presence of 15 μM atractyloside, i.e., under state IV conditions where […]. Afterwards, rotenone (1.5 μM), antimycin A (2 μM), and myxothiazol (0.2 μM) were sequentially added to inhibit the redox centers within the electron transfer chain (FIG. 2), namely sites IQ, IF (with rotenone), IIIQi (with antimycin A) and IIIQO (with myxothiazol). Assay was finally calibrated with known amounts of H2O2 (steps of 300 nM), in the presence of all relevant compounds, including AOL. The control test of the absence of effect of AOL on the Amplex Red assay itself and NAD(P)H oxidase ROS/H2O2 production was carried out in the absence of cardiac mitochondria and the presence of NAD(P)H oxidase (EC 1.6.3.3, 5 mU/mL, Sigma) and NADH (100 μM) solutions.
The specificity of AOL was further tested in vitro using the peroxidase-Amplex Red system utilized for the measurement of ROS/H2O2 by mitochondria, which in fact measures the appearance of H2O2 by the oxidation of Amplex Red to the fluorescent resorufin (see FIG. 4). In the absence of mitochondria and by adding instead a H2O2-producing system to the measuring system, it was possible to test the effect of AOL on this system. This has been carried out by using commercial NAD(P)H oxidase which produces H2O2 in the presence of added NAD(P)H and measuring the reduction of Amplex Red to resorufin (FIG. 4).
Isolated mitochondria (0.1 mg/mL) were incubated in the same experimental buffer than previously, supplemented with 15 μM Amplex Red and 10 μg/mL HRP. Glutamate (5 mM)/malate (2.5 mM) together with succinate (5 mM) were used as complex I and complex II substrates, respectively. Experiments were conducted under non-phosphorylating conditions in the presence of 15 μM atractyloside. Afterwards, rotenone (1.5 μM), antimycin A (2 μM), and myxothiazol (0.2 μM) were sequentially added to inhibit the redox centers within the electron transfer chain (see FIG. 2), namely sites IQ, IF (with rotenone), IIIQi (with antimycin A) and IIIQO (with myxothiazol). Assay was finally calibrated with known amounts of H2O2 (steps of 300 nM), in the presence of all relevant compounds, including AOX. The control test of the absence of effect of AOL, AOX and Oltipraz on the Amplex Red assay itself and NAD(P)H oxidase […] production was carried out in the absence of cardiac mitochondria and the presence of NAD(P)H oxidase (EC 1.6.3.3, 5 mU/mL, Sigma) and NADH (100 μM) solutions.
The mechanism of action of AOX was further tested in vitro using the peroxidase-Amplex Red system utilized for the measurement of ROS/H2O2 by mitochondria, which in fact measures the appearance of H2O2 by the oxidation of Amplex Red to the fluorescent resorufin (FIG. 22). In the absence of mitochondria and by adding instead a H2O2-producing system to the assay, it was possible to test the effect of AOX on this non-mitochondrial superoxide/H2O2 production. This has been carried out by using commercial NAD(P)H oxidase which produces H2O2 in the presence of added NAD(P)H and measuring the reduction of Amplex Red to resorufin. […]

Assay [2] concerns H460 cells. As to the kind of experiment: Oxygen consumption of resting carcinoma cells (oxygraphy). It counts as cell-based, human. The following applies: 0 to 40 μM. How it is done:
Human non-small cell carcinoma cell line H460 and A549 were obtained from ATCC. Cells were cultured in growth medium consisting of DMEM (GIBCO), 10% FBS (GIBCO) and 100 units of penicillin and 100 μg/mL streptomycin (GIBCO). The cells were maintained in either 75-cm^2 T-flasks or 175-cm^2 T-flasks (BD Biosciences) in an incubator (model 3100 series, Forma Scientific, Marietta, Ohio) controlled at 37° C., 95% humidity, and 5% CO2. Cell culture medium was refreshed every other day. Every 2 to 3 days, H460 and A549 cultures were detached from the flasks using a 0.25% trypsin solution (Gibco) and subcultured. All cultures were maintained at 80-90% confluence at the time of subculture.
The effects of AOX (0 to 40 μM) were assessed on carcinoma cells using the classical oxygraphic approach and compared to the effects of sister molecule AOL.
Oxygen consumption of H460 resting cells has been measured continuously and increasing concentrations of AOL and AOX (0 to 40 μM) have been injected to the preparation (FIG. 24).

For `COc1ccc(-c2cc(=S)ss2)cc1` [AOL, 5-(4-methoxyphenyl)-3H-1,2-dithiole-3-thione], in assay [1], the “effect on ROS measurement with NAD(P)H oxidase” value is reported as “no global effect” and the “averaged percentage of ROS production across all concentrations tested” value amounted to 99.2%. In addition, the “inhibition of fluorescence in NAD(P)H oxidase/Amplex Red system” value in assay [1] (results not shown) is on record as “did not observe any inhibition”. Moreover, the “rate of oxygen consumption by H460 cells” value in assay [2] was “no change in the rate of oxygen consumption”.

As for `Oc1ccc(-c2cc(=S)ss2)cc1` [AOX, 5-(4-hydroxyphenyl)-3H-1,2-dithiole-3-thione], in assay [1], the “effect on ROS measurement with NAD(P)H oxidase” value is reported as “no global effect” and the “averaged percentage of ROS production across all concentrations tested” value is recorded as 109.9%. In addition, the “rate of oxygen consumption by H460 cells” value in assay [2] is reported as “no change in the rate of oxygen consumption”.
